Reference: patent US20100261642A1, “NUTRITIONAL FORMULATION WITH HIGH ENERGY CONTENT” (N.V. NUTRICIA, priority 2007, published 2010)

Tested on: intestinal epithelial cell lines T84
Assay: IL-4 mediated barrier disruption in T84 monolayers (flux and transepithelial resistance)
Type: cell-based, human
Conditions: for protective effect on IL-4 mediated barrier destruction (4 kD dextran flux), FIG. 1: 10 μM and 100 μM, time and dose dependent; for effect on IL-4 mediated barrier disruption (flux), in words: 100 μM, Table 1 summary, compared to control
Method: Monolayers (MC) of intestinal epithelial cell lines T84 (ATCC, USA) were cultured on transwell filters (Corning, Costar BV, The Netherlands) allowing both mucosal and serosal sampling and stimulation of human intestinal epithelial cells. Two weeks post confluency the monolayers were incubated in the presence of IL-4 (2 ng/ml, serosal compartment, Sigma, USA) with or without polyunsaturated fatty acids ARA, DHA, GLA, EPA, or control palmitic acid (10 μM or 100 μM, mucosal compartment, Sigma, St. Louis, USA). Cells were pre-incubated with ARA, DHA, EPA, or palmitic acid for 48 hr prior to the IL-4 incubation. The co-incubation of PUFA's and palmitic acid with IL-4 was continued for another 48 hr; while culture medium and additives were changed every 24 hr. The epithelial barrier function was determined by measuring the transepithelial resistance (TER) and permeability.

Structure (SMILES)	IL-4 Flux (100 μM fatty acid, mucosal, IL-4 2 ng/ml, serosal, 48 hr pre-incubation + 48 hr co-incubation, permeability (4 kD dextran flux))	IL-4 TER (100 μM fatty acid, mucosal, IL-4 2 ng/ml, serosal, 48 hr pre-incubation + 48 hr co-incubation, transepithelial resistance)	protective effect on IL-4 mediated barrier destruction (4 kD dextran flux), FIG. 1	effect on IL-4 mediated barrier disruption (flux), in words
CC/C=C\C/C=C\C/C=C\C/C=C\C/C=C\C/C=C\CCC(=O)O [DHA, docosahexaenoic acid]	271	547	–	–
CCCCC/C=C\C/C=C\C/C=C\CCCCC(=O)O [GLA]	–	–	protect against IL-4 mediated barrier disruption	–
CCCCCCCCCCCCCCCC(=O)O [Palmitic acid, palmitic acid, reference compound]	–	–	–	detrimental effect
CCCCC/C=C\C/C=C\C/C=C\C/C=C\CCCC(=O)O [ARA, arachidonic acid]	–	–	protect against IL-4 mediated barrier disruption	inhibit the increased flux caused by IL-4
